Measured values published in patent US20250144067A1, “PERSONALIZED STARVATION THERAPY FOR CANCER” (Faeth Therapeutics, Inc., priority 2021, published 2025).
Structures can show the parent of a compound that is named as a salt. Where two headings read alike, the source gives them in different places.

How the values were obtained:
[1] = system: NCI-H292 lung cancer cells; assay: FDA drug screening, complete media vs cholesterol-free media without statin (TABLE 1); assay type: cell-based, human
[2] = system: NCI-H292 lung cancer cells; assay: FDA drug screening, complete media vs cholesterol-free media with simvastatin (TABLE 2); assay type: cell-based, human
[3] = NCI-H292 cells, cholesterol-free media without statin, FDA drug library screen
[4] = NCI-H292 cells, complete media, FDA drug library screen
[5] = complete vs cholesterol-free media, >0 enhanced anti-cancer activity, about 0 neutral, <0 antagonist
[6] = NCI-H292 cells, FDA drug library screen, cholesterol-free media with simvastatin 0.04 μM
[7] = NCI-H292 cells, FDA drug library screen, complete media
[8] = complete media minus cholesterol-free media + simvastatin, >0 enhanced anti-cancer activity, about 0 neutral, <0 antagonist
[9] = Complete minus Cholesterol-free, greater than 0 enhanced anti-cancer activity, about 0 neutral, below 0 antagonists
[10] = NCI-H292 cells in cholesterol-free media without statin
[11] = NCI-H292 cells in complete media
[12] = NCI-H292 cells, drug in cholesterol-free media with simvastatin 0.04 μM
[13] = NCI-H292 cells, drug in complete media
[14] = complete media vs cholesterol-free media + simvastatin (0.04 μM), >0 enhanced anti-cancer activity, about 0 neutral, <0 antagonist
[15] = NCI-H292 cells, cholesterol-free media with simvastatin 0.04 μM, cell growth value in FDA drug screen
[16] = NCI-H292 cells, complete media, cell growth value in FDA drug screen
[17] = Complete minus Cholesterol-free, greater than 0 enhanced anti-cancer activity, about 0 neutral, below 0 antagonist
[18] = NCI-H292 cells, FDA drug library screen, cholesterol-free media without statin
[19] = NCI-H292 cells, cholesterol-free media with simvastatin 0.04 μM, FDA drug library screen (TABLE 2)
[20] = NCI-H292 cells, complete media, FDA drug library screen (TABLE 2)
[21] = complete media minus cholesterol-free media + simvastatin (0.04 μM), >0 enhanced anti-cancer activity, about 0 neutral, <0 antagonist
[22] = Complete minus Cholesterol-free, >0 enhanced anti-cancer activity, about 0 neutral, <0 antagonist
[23] = NCI-H292 cells, cholesterol-free media without statin
[24] = complete vs cholesterol-free media, greater than 0 enhanced anti-cancer activity, about 0 neutral, below 0 antagonists
[25] = NCI-H292 cells, FDA library drug in cholesterol-free media with simvastatin 0.04 μM
[26] = NCI-H292 cells, FDA library drug in complete media

SMILES: CN(C)CCC=C1c2ccccc2C=Cc2ccccc21 [Cyclobenzaprine (hydrochloride)]
- Cholesterol-free [1, 3]: 1.08
- Complete [1, 4]: 1.26
- Difference [1, 5]: 0.18
- Cholesterol-free media + simvastatin (0.04 μM) [2, 6]: 1.036
- Complete Media [2, 7]: 1.3
- Difference [2, 8]: 0.26

SMILES: CN(C)CCOC(=O)C(c1ccccc1)C1(O)CCCC1 (centres unmarked) [Cyclopentolate (hydrochloride)]
- Difference [1, 9]: −0.56
- Cholesterol-free [1, 10]: 1.412
- Complete [1, 11]: 0.8527
- Cholesterol-free media + simvastatin (0.04 μM) [2, 12]: 1.064
- Complete Media [2, 13]: 0.8727
- Difference [2, 14]: −0.19

SMILES: CN1CCC(=C2c3ccccc3C=Cc3ccccc32)CC1 [Cyproheptadine (hydrochloride sesquihydrate)]
- Cholesterol-free [1, 3]: 0.8413
- Complete [1, 4]: 1.399
- Difference [1, 5]: 0.56
- Cholesterol-free media + simvastatin (0.04 μM) [2, 15]: 1.087
- Complete Media [2, 16]: 1.192
- Difference [2, 8]: 0.11

SMILES: CN1CCC(=C2c3ccccc3C=Cc3ccccc32)CC1 [Cyproheptadine (hydrochloride)]
- Cholesterol-free [1, 3]: 0.9826
- Complete [1, 4]: 1.57
- Difference [1, 5]: 0.59
- Cholesterol-free media + simvastatin (0.04 μM) [2, 6]: 0.6096
- Complete Media [2, 7]: 0.7817
- Difference [2, 8]: 0.17

SMILES: CC(=O)O[C@]1(C(C)=O)CC[C@H]2[C@@H]3C=C(Cl)C4=CC(=O)[C@@H]5C[C@@H]5[C@]4(C)[C@H]3CC[C@@]21C [Cyproterone acetate]
- Difference [1, 9]: −1.74
- Cholesterol-free [1, 10]: 2.754
- Complete [1, 11]: 1.015
- Cholesterol-free media + simvastatin (0.04 μM) [2, 15]: 1.003
- Complete Media [2, 16]: 1.068
- Difference [2, 8]: 0.07

SMILES: NCCS [Cysteamine hydrochloride]
- Cholesterol-free [1, 3]: 1.255
- Complete [1, 4]: 1.431
- Difference [1, 5]: 0.18
- Cholesterol-free media + simvastatin (0.04 μM) [2, 6]: 0.9975
- Complete Media [2, 7]: 0.86
- Difference [2, 14]: −0.14

SMILES: Nc1ccn([C@@H]2O[C@H](CO)[C@@H](O)[C@@H]2O)c(=O)n1 [Cytarabine (hydrochloride)]
- Difference [1, 17]: −0.08
- Cholesterol-free [1, 18]: 0.1883
- Complete [1, 7]: 0.1064
- Cholesterol-free media + simvastatin (0.04 μM) [2, 19]: 0.3553
- Complete Media [2, 20]: 0.3011
- Difference [2, 21]: −0.05

SMILES: Nc1ccn([C@@H]2O[C@H](CO)[C@@H](O)[C@@H]2O)c(=O)n1 [Cytarabine]
- Difference [1, 22]: −0.05
- Cholesterol-free [1, 3]: 0.08949
- Complete [1, 4]: 0.04199
- Cholesterol-free media + simvastatin (0.04 μM) [2, 6]: 0.2698
- Complete Media [2, 7]: 0.1951
- Difference [2, 14]: −0.07

SMILES: Nc1ccn([C@@H]2O[C@H](CO)[C@@H](O)[C@H]2O)c(=O)n1 [Cytidine]
- Difference [1, 22]: −0.23
- Cholesterol-free [1, 23]: 1.318
- Complete ([1]; NCI-H292 cells, complete media): 1.09
- Cholesterol-free media + simvastatin (0.04 μM) [2, 12]: 1.411
- Complete Media [2, 13]: 1.221
- Difference [2, 14]: −0.19

SMILES: O=c1cccc2n1C[C@@H]1CNC[C@H]2C1 [Cytisinicline]
- Cholesterol-free [1]: 1.156
- Complete [1]: 0.9676
- Difference [1]: −0.19
- Cholesterol-free media + simvastatin (0.04 μM) [2]: 1.003
- Complete Media [2]: 1.015
- Difference [2]: 0.01

SMILES: O=C1O[C@H](CO)[C@@H](O)[C@H](O)[C@H]1O [D-(+)-Glucono-1,5-lactone]
- Cholesterol-free [1, 23]: 1.227
- Complete ([1]; NCI-H292 cells, complete media): 0.906
- Difference [1, 24]: −0.32
- Cholesterol-free media + simvastatin (0.04 μM) [2, 6]: 1.196
- Complete Media [2, 7]: 1.644
- Difference [2, 8]: 0.45

SMILES: N[C@@H]1CONC1=O [D-Cycloserine]
- Cholesterol-free [1, 23]: 1.516
- Difference [1, 24]: −0.37
- Cholesterol-free media + simvastatin (0.04 μM) [2, 12]: 1.193
- Complete Media [2, 13]: 1.005
- Difference [2, 14]: −0.19

SMILES: N[C@H](CS)C(=O)O [D-Cysteine]
- Cholesterol-free [1, 23]: 1.1
- Complete ([1]; NCI-H292 cells, complete media): 0.7316
- Difference [1, 24]: −0.37
- Cholesterol-free media + simvastatin (0.04 μM) [2, 12]: 1.145
- Complete Media [2, 13]: 0.9078
- Difference [2, 14]: −0.24

SMILES: O=C(CO)[C@@H](O)[C@H](O)[C@H](O)CO [D-Fructose]
- Difference [1, 22]: 0.05
- Cholesterol-free [1, 3]: 1.151
- Complete [1, 4]: 1.203
- Cholesterol-free media + simvastatin (0.04 μM) [2, 12]: 1.284
- Complete Media [2, 13]: 1.053
- Difference [2, 14]: −0.23

SMILES: O=C(O)[C@H](O)[C@@H](O)[C@H](O)[C@H](O)CO [D-Gluconic acid]
- Cholesterol-free [1]: 1.845
- Complete [1]: 1.115
- Difference [1]: −0.73
- Cholesterol-free media + simvastatin (0.04 μM) [2]: 1.103
- Complete Media [2]: 0.9995
- Difference [2]: −0.10

SMILES: OC[C@H]1OC(O)[C@H](O)[C@@H](O)[C@@H]1O (stereo partly drawn) [D-Glucose]
- Difference [1, 22]: −0.06
- Cholesterol-free [1, 3]: 0.3615
- Complete [1, 4]: 0.3017
- Cholesterol-free media + simvastatin (0.04 μM) [2, 12]: 0.822
- Complete Media [2, 13]: 0.5991
- Difference [2, 14]: −0.22

SMILES: OC[C@@H](O)[C@@H](O)[C@H](O)[C@H](O)CO [D-Mannitol]
- Cholesterol-free [1, 3]: 0.8621
- Complete [1, 4]: 1.662
- Difference [1, 5]: 0.80
- Cholesterol-free media + simvastatin (0.04 μM) [2, 6]: 1.033
- Complete Media [2, 7]: 1.748
- Difference [2, 8]: 0.71

SMILES: CC(C)(CO)[C@H](O)C(=O)NCCCO [D-Panthenol]
- Difference [1, 17]: −0.09
- Cholesterol-free [1, 18]: 1.002
- Complete [1, 7]: 0.9087
- Cholesterol-free media + simvastatin (0.04 μM) [2, 12]: 1.067
- Complete Media [2, 13]: 0.817
- Difference [2, 14]: −0.25

SMILES: CC(C)(CO)[C@@H](O)C(=O)NCCC(=O)[O-].CC(C)(CO)[C@@H](O)C(=O)NCCC(=O)[O-].[Ca+2] [D-Pantothenic acid (hemicalcium salt)]
- Difference [1, 22]: −0.04
- Cholesterol-free [1, 3]: 0.8788
- Complete [1, 4]: 0.8434
- Cholesterol-free media + simvastatin (0.04 μM) [2, 25]: 1.159
- Complete Media [2, 26]: 0.786
- Difference [2, 14]: −0.37

SMILES: CC(C)(CO)[C@H](O)C(=O)NCCC(=O)O.[Na] [D-Pantothenic acid (sodium)]
- Difference [1, 22]: −0.03
- Cholesterol-free [1, 3]: 1.02
- Complete [1, 4]: 0.9879
- Cholesterol-free media + simvastatin (0.04 μM) [2, 12]: 1.102
- Complete Media [2, 13]: 0.858
- Difference [2, 14]: −0.24

SMILES: OC[C@@H](O)[C@@H](O)[C@H](O)[C@@H](O)CO [D-Sorbitol]
- Cholesterol-free [1, 3]: 1.006
- Complete [1, 4]: 1.32
- Difference [1, 5]: 0.31
- Cholesterol-free media + simvastatin (0.04 μM) [2, 6]: 1.142
- Complete Media [2, 7]: 1.023
- Difference [2, 14]: −0.12

SMILES: N[C@H](Cc1ccc(O)cc1)C(=O)O [D-Tyrosine]
- Difference [1, 22]: −0.01
- Cholesterol-free [1, 3]: 1.081
- Complete [1, 4]: 1.068
- Cholesterol-free media + simvastatin (0.04 μM) [2, 25]: 1.43
- Complete Media [2, 26]: 0.9975
- Difference [2, 14]: −0.43

SMILES: CC(=O)Oc1c(C)c(C)c2c(c1C)CCC(C)(CCC[C@H](C)CCC[C@H](C)CCCC(C)C)O2 (stereo partly drawn) [D-α-Tocopherol acetate]
- Cholesterol-free [1, 3]: 0.7729
- Complete [1, 4]: 1.233
- Difference [1, 5]: 0.46
- Cholesterol-free media + simvastatin (0.04 μM) [2, 15]: 0.8974
- Complete Media [2, 16]: 1.003
- Difference [2, 8]: 0.11

SMILES: C[C@]12CC[C@H](O)CC1=CC[C@@H]1[C@@H]2CC[C@]2(C)C(=O)CC[C@@H]12 [DHEA]
- Cholesterol-free [1, 3]: 1.449
- Complete [1, 4]: 1.634
- Difference ([1]; complete vs cholesterol-free media, […]): 0.19
- Cholesterol-free media + simvastatin (0.04 μM) [2, 25]: 1.034
- Complete Media [2, 26]: 0.7371
- Difference ([2]; complete media vs cholesterol-free media + simvastatin (0.04 μM), […]): −0.30

SMILES: CCCCCCOC(=O)N=C(N)c1ccc(NCc2nc3cc(C(=O)N(CCC(=O)OCC)c4ccccn4)ccc3n2C)cc1 [Dabigatran etexilate]
- Difference [1, 17]: −0.09
- Cholesterol-free [1, 18]: 0.9682
- Complete [1, 7]: 0.8738
- Cholesterol-free media + simvastatin (0.04 μM) [2, 15]: 0.8555
- Complete Media [2, 16]: 0.8818
- Difference [2, 8]: 0.03

SMILES: CC(C)(C)c1nc(-c2cccc(NS(=O)(=O)c3c(F)cccc3F)c2F)c(-c2ccnc(N)n2)s1 [Dabrafenib]
- Difference [1, 17]: −0.18
- Cholesterol-free [1, 18]: 0.7255
- Complete [1, 7]: 0.5433
- Cholesterol-free media + simvastatin (0.04 μM) [2, 19]: 0.7299
- Complete Media [2, 20]: 0.7037
- Difference [2, 21]: −0.03

SMILES: CN(C)/N=N/c1[nH]cnc1C(N)=O [Dacarbazine]
- Difference [1, 17]: −0.11
- Cholesterol-free [1, 18]: 1.191
- Complete [1, 7]: 1.077
- Cholesterol-free media + simvastatin (0.04 μM) [2, 6]: 1.089
- Complete Media [2, 7]: 0.9656
- Difference [2, 14]: −0.12

SMILES: COC(=O)N[C@H](C(=O)N1CCC[C@H]1c1nc(-c2ccc(-c3ccc(-c4c[nH]c([C@@H]5CCCN5C(=O)[C@@H](NC(=O)OC)C(C)C)n4)cc3)cc2)c[nH]1)C(C)C [Daclatasvir (dihydrochloride)]
- Difference [1, 22]: 0.02
- Cholesterol-free [1, 3]: 1.025
- Complete [1, 4]: 1.046
- Cholesterol-free media + simvastatin (0.04 μM) [2, 25]: 1.149
- Complete Media [2, 26]: 0.7215
- Difference [2, 14]: −0.43
